According to ChEMBL document CHEMBL4270485, “Determination of Gymnemic Acid I as a Protein Biosynthesis Inhibitor Using Chemical Proteomics” (J Nat Prod, 2017):
Calls of active or inactive are those of the source. The rule behind the calls is not given here.

Columns and labels:
[1] = Drug internalization in human HeLa cells at 1 uM by RP-HPLC-MS analysis; type: ADME, cell-based
HeLa = assay: Inhibition of protein synthesis in human HeLa cells at 50 to 500 uM pre-incubated for 1 hr before L-[35S]-cysteine and L-[35S]-methionine addition and measured after 1 hr by Comassie staining based autoradiography; type: functional, cell-based

Drug uptake [1]: 15%
SMILES: C/C=C(\C)C(=O)O[C@H]1[C@H](O)[C@]2(COC(C)=O)[C@@H](O)C[C@]3(C)C(=CC[C@@H]4[C@@]5(C)CC[C@H](O[C@@H]6O[C@H](C(=O)NCC)[C@@H](O)[C@H](O)[C@H]6O)[C@@](C)(CO)[C@@H]5CC[C@]43C)[C@@H]2CC1(C)C
inhibition (HeLa): inactive
